Drawing on US7998987B2, “Inhibitors of c-Met and uses thereof” (Vertex Pharmaceuticals Incorporated, priority 2005, dated 2011), this text covers Ki for 80 compounds.

A value given as a limit tells only on which side of the number the result lay.

Sequence of c-Met (P08581 25-1390): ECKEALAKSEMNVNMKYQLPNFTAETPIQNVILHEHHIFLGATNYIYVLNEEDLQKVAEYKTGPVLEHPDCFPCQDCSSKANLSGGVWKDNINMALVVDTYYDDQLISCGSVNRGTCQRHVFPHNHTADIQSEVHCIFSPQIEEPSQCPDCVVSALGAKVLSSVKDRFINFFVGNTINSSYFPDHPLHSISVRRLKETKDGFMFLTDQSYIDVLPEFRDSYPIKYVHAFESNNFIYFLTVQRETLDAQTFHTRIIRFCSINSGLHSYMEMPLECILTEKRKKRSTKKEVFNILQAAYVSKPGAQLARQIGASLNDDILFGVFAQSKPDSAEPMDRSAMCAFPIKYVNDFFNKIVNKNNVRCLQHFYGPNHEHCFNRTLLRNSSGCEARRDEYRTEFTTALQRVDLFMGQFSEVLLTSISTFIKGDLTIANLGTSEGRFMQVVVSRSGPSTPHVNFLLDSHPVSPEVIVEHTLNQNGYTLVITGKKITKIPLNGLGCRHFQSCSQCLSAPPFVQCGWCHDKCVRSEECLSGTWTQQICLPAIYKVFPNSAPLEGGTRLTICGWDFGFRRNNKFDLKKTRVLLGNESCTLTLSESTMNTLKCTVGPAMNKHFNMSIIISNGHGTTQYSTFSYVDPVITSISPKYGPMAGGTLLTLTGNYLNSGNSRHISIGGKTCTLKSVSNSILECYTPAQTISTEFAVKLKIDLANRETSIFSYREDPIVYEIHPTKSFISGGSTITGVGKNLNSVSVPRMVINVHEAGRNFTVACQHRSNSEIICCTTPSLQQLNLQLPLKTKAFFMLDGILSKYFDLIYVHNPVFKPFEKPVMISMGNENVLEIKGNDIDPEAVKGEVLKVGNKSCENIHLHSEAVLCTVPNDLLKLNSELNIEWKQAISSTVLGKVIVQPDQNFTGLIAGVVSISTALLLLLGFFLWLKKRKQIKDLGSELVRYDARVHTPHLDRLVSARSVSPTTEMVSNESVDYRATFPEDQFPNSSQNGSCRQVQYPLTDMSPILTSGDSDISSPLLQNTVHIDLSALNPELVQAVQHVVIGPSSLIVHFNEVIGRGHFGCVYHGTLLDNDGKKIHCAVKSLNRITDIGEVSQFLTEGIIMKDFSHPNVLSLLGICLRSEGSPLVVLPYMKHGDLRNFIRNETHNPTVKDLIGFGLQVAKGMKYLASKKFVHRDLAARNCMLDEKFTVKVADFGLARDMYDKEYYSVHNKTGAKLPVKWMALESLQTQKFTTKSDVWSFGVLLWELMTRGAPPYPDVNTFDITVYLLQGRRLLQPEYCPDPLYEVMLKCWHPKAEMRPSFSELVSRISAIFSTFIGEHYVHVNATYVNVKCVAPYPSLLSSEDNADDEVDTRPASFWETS

The first experiment addresses c-Met (Homo sapiens, UniProt P08581). Put plainly: Ki determination for the inhibition of c-Met kinase activity (standard coupled enzyme system). It is filed as biochemical. Particulars: coupled enzyme system, 200 μM ATP, 80 nM c-Met, 30° C.; read-out: c-Met Ki. A digest of the protocol:
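Continuous coupled-enzyme (PK/LDH, NADH depletion) assay with 80 nM c-Met, 200 μM ATP and 10 μM polyGluTyr in 100 mM HEPES pH 7.5, 10 mM MgCl2, 1.5% DMSO at 30 °C.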
For the compound `Fc1cccc(OCc2nnc3ccc(Nc4cccc(Cl)c4)nn23)c1` [Compound 377], the Ki was more than 2000 nM.
On to `Clc1cccc(Nc2ccc3nnc(C4(c5ccc6c(c5)OCO6)CC4)n3n2)c1` [Compound 400], for which the Ki is less than 100 nM.
For the compound `Fc1ccc(Cc2nnc3ccc(Nc4cccc(Cl)c4)nn23)cc1` [Compound 402], the Ki was less than 100 nM.
On the same count and under the same terms, the same measure for `COC(=O)c1ccc(OCc2nnc3ccc(Nc4cccc(Cl)c4)nn23)c(N)c1` [Compound 433]: less than 100 nM.
Regarding `CCC(c1ccc(O)cc1)c1nnc2ccc(Nc3cccc(Cl)c3)nn12` (centres unmarked) [Compound 367], the inhibition constant (Ki) is less than 100 nM.
With `COc1ccc(OC)c(NCc2nnc3ccc(Nc4cccc(Cl)c4)nn23)c1` [Compound 353], the Ki was more than 2000 nM.
On the same count and under the same terms, the same measure for `CC[C@@H](CO)Nc1ccc2nnc(Cc3ccc(O)cc3)n2n1` [Compound 308]: 100 to 2000 nM; for `Oc1ccc(CCc2nnc3ccc(Nc4cccc(Cl)c4)nn23)cc1` [Compound 366]: 100 to 2000 nM.
As to `Clc1cccc(Nc2ccc3nnc(CNc4ccc5c(c4)OCCO5)n3n2)c1` [Compound 349], the Ki was more than 2000 nM.
Turning to `C[C@H](CO)Nc1ccc2nnc(Cc3ccc(O)cc3)n2n1` [Compound 303], the Ki was 100 to 2000 nM.
Turning to `COCCC(=O)N[C@H]1CCCC[C@@H]1Nc1ccc2nnc([C@@H](C)c3ccc(O)cc3)n2n1` [Compound 449], the inhibition constant (Ki) was more than 2000 nM.
Turning to `Clc1cccc(Nc2ccc3nnc(Cn4cnc5ccccc54)n3n2)c1` [Compound 485], the Ki was more than 2000 nM.
Still for that read-out and setting: the same measure for `C[C@@H](c1ccc(O)cc1)c1nnc2ccc(NC3CCCCC3)nn12` [Compound 419]: less than 100 nM; for `Clc1cccc(Nc2ccc3nnc(CSc4ccccc4)n3n2)c1` [Compound 387]: more than 2000 nM.
Same read-out and setting: in the case of `Cc1cc(C)cc(Nc2ccc3nnc(Cc4ccc(O)cc4)n3n2)c1` [Compound 295] it was less than 100 nM; in that of `COc1ccc(NCc2nnc3ccc(Nc4cccc(Cl)c4)nn23)c(O)c1` [Compound 351], 100 to 2000 nM; in that of `CCc1cccc(Nc2ccc3nnc(Cc4ccc(O)cc4)n3n2)c1` [Compound 288], less than 100 nM.
As for `Fc1ccc(NCc2nnc3ccc(Nc4cccc(Cl)c4)nn23)cc1F` [Compound 341], the Ki was more than 2000 nM.
The same measure, in the same setting: the same measure for `Clc1cccc(Nc2ccc3nnc(CCc4ccncc4)n3n2)c1` [Compound 394]: more than 2000 nM; for `N#Cc1ccc(OCc2nnc3ccc(Nc4cccc(Cl)c4)nn23)cc1` [Compound 379]: more than 2000 nM; for `Oc1ccc(Cc2nnc3ccc(Nc4cccc(C(F)(F)F)c4)nn23)cc1F` [Compound 292]: less than 100 nM.
The same measure, in the same setting: the same measure for `Clc1cccc(Nc2ccc3nnc(COc4ccc5nonc5c4)n3n2)c1` [Compound 472]: more than 2000 nM; for `COc1cccc(Cc2nnc3ccc(Nc4cccc(Cl)c4)nn23)c1` [Compound 439]: 100 to 2000 nM.
As to `COc1cc(NCc2nnc3ccc(Nc4cccc(Cl)c4)nn23)c(C(C)=O)cc1OC` [Compound 331], the Ki is more than 2000 nM.
Same read-out and setting: the same measure for `O=C(O)c1cc(O)ccc1NCc1nnc2ccc(Nc3cccc(Cl)c3)nn12` [Compound 340]: more than 2000 nM.
On the same count and under the same terms, in the case of `Fc1ccc(Cc2nnc3ccc(Nc4cccc(Cl)c4)nn23)c(Cl)c1` [Compound 314] it was 100 to 2000 nM; in that of `Clc1cccc(Nc2ccc3nnc(Cn4ncc5ccccc54)n3n2)c1` [Compound 489], more than 2000 nM; in that of `COC(=O)c1c(O)cccc1NCc1nnc2ccc(Nc3cccc(Cl)c3)nn12` [Compound 332], 100 to 2000 nM.
In the case of `NC(=O)c1cc(Cc2nnc3ccc(Nc4cccc(Cl)c4)nn23)ccc1F` [Compound 476], the Ki is more than 2000 nM.
Same read-out and setting: the same measure for `Oc1ccc(Cc2nnc3ccc(Nc4nncs4)nn23)cc1` [Compound 482]: more than 2000 nM.
With `CC(=O)N[C@H]1CCCC[C@H]1Nc1ccc2nnc([C@@H](C)c3ccc(O)cc3)n2n1` [Compound 446], the Ki was in the range of 100 to 2000 nM.
Same read-out and setting: in the case of `Oc1cccc(CCc2nnc3ccc(Nc4cccc(Cl)c4)nn23)c1` [Compound 441] it was more than 2000 nM.
Turning to `Oc1ccc(Cc2nnc3ccc(NC4CCC4)nn23)cc1` [Compound 330], the Ki is 100 to 2000 nM.
Still for that read-out and setting: in the case of `NC(=O)c1ccc(NCc2nnc3ccc(Nc4cccc(Cl)c4)nn23)cc1` [Compound 467] it was 100 to 2000 nM.
Turning to `CC(C)C[C@H](NC(=O)OCc1ccccc1)C1=Nn2c(Cc3ccc(O)cc3)nnc2SC1` [Compound 532], the inhibitory constant (Ki) is more than 2000 nM.
Consider `Oc1ccc(Cc2nnc3ccc(N4CCc5ccccc5C4)nn23)cc1` [Compound 422], for which the Ki is 100 to 2000 nM.
On to `COc1ccc(Cc2nnc3ccc(Nc4cccc(C#N)c4)nn23)cc1` [Compound 287], for which the Ki is less than 100 nM.
Same read-out and setting: the same measure for `CS(=O)(=O)Nc1ccc(Cc2nnc3ccc(Nc4cccc(Cl)c4)nn23)cc1` [Compound 369]: more than 2000 nM; for `CCOC(=O)C1=Nn2c(Cc3ccc(O)cc3)nnc2SC1` [Compound 534]: 100 to 2000 nM; for `CN(C)c1ccc(Cc2nnc3ccc(Nc4cccc(Cl)c4)nn23)cc1` [Compound 457]: more than 2000 nM.

Still in this experiment, the particulars now being: coupled enzyme system, 200 μM ATP, 10 μM polyGluTyr, 80 nM c-Met, 30° C.; read-out: c-Met Ki.
On to `CC(c1ccc(O)cc1)c1nnc2sc(C(=O)NC3CC3)nn12` (centres unmarked) [Compound 90], for which the Ki is more than 2000 nM.
The same measure, in the same setting: in the case of `CC(C)Nc1ccc2nnc(Cc3ccc(O)cc3)n2n1` [Compound 276] it was 100 to 2000 nM; in that of `Oc1cccc(CCc2nnc3sc(Nc4cccc(F)c4F)nn23)c1` [Compound 121], more than 2000 nM.
Turning to `COc1cccc(Nc2nn3c(Cc4ccc(O)c(F)c4)nnc3s2)c1` [Compound 35], the Ki lay within 100 to 2000 nM.
For `Fc1cccc(Nc2nn3c(Cn4ccc5ncccc54)nnc3s2)c1` [Compound 134], the inhibitory constant (Ki) is 100 to 2000 nM.
With `C[C@H](c1ccc(O)cc1)c1nnc2sc(Nc3ccc(Cl)cc3)nn12` [Compound 118], the Ki was in the range of 100 to 2000 nM.
Same read-out and setting: in the case of `COc1ccc([C@H](C)c2nnc3sc(Nc4cccc(Cl)c4)nn23)cc1` [Compound 157] it was 100 to 2000 nM; in that of `CC(c1ccc(O)cc1)c1nnc2sc(Nc3cccc(C(F)(F)F)c3)nn12` (centres unmarked) [Compound 138], less than 100 nM; in that of `CC1CCC(Nc2ccc3nnc(Cc4ccc(O)cc4)n3n2)CC1` (centres unmarked) [Compound 271], 100 to 2000 nM.
The same measure, in the same setting: the same measure for `c1cncc(Nc2nn3c(Cc4ccc5c(c4)OCO5)nnc3s2)c1` [Compound 84]: 100 to 2000 nM; for `Oc1ccc(Cc2nnc3ccc(NC4CCCCC4)nn23)cc1` [Compound 214]: less than 100 nM; for `OCCCCNc1ccc2nnc(Cc3ccc(O)cc3)n2n1` [Compound 198]: 100 to 2000 nM.
On the same count and under the same terms, in the case of `Oc1ccc(Cc2nnc3ccc(N4CCC[C@H]4CN4CCCC4)nn23)cc1` [Compound 200] it was more than 2000 nM; in that of `COc1ccc(Nc2nn3c(Cc4ccc5c(c4)OCO5)nnc3s2)cc1` [Compound 65], 100 to 2000 nM.
For `N#Cc1cccc(Nc2ccc3nnc(Cc4ccc5c(c4)OCO5)n3n2)c1` [Compound 221], the Ki is less than 100 nM.
On the same count and under the same terms, the same measure for `COCC1CCCN1c1nn2c(Cc3ccc(OC)cc3)nnc2s1` (centres unmarked) [Compound 12]: more than 2000 nM; for `CNC(=O)c1cccc(Nc2ccc3nnc(Cc4ccc(O)c(Cl)c4)n3n2)c1` [Compound 234]: 100 to 2000 nM.
On to `CC(c1ccc(O)cc1)c1nnc2sc(C(=O)N3CCCC3)nn12` (centres unmarked) [Compound 89], for which the Ki was more than 2000 nM.
For the compound `Cc1cccc(Nc2ccc3nnc(Cc4ccc5c(c4)OCO5)n3n2)c1` [Compound 230], the Ki was 100 to 2000 nM.
The same measure, in the same setting: the same measure for `COc1cccc(Nc2nn3c(Cc4ccc(O)c(OC)c4)nnc3s2)c1` [Compound 38]: 100 to 2000 nM.
On the same count and under the same terms, in the case of `COc1ccc(Cc2nnc3ccc(Nc4cccc(C)c4)nn23)cc1` [Compound 229] it was 100 to 2000 nM; in that of `COc1ccc(NC(=O)Nc2nn3c(Cc4ccc(O)cc4)nnc3s2)cc1` [Compound 115], more than 2000 nM; in that of `Fc1cccc(Nc2nn3c(Cc4ccc5c(c4)OCO5)nnc3s2)c1` [Compound 107], less than 100 nM.
On to `Oc1ccc(Cc2nnc3ccc(Nc4ccc(Cl)cc4)nn23)cc1` [Compound 186], for which the inhibitory constant (Ki) lay in the range of 100 to 2000 nM.
Still for that read-out and setting: in the case of `CC(C)C(CO)Nc1ccc2nnc(Cc3ccc(O)cc3)n2n1` (centres unmarked) [Compound 282] it was 100 to 2000 nM; in that of `CNC(=O)c1nn2c(C(C)c3ccc(O)cc3)nnc2s1` (centres unmarked) [Compound 87], more than 2000 nM; in that of `CC(C)[C@@H](N)C(=O)Oc1ccc([C@H](C)c2nnc3sc(Nc4cccc(Cl)c4)nn23)cc1` [Compound 168], less than 100 nM.
Still for that read-out and setting: the same measure for `CCC(C)Nc1ccc2nnc(Cc3ccc(O)cc3)n2n1` (centres unmarked) [Compound 278]: 100 to 2000 nM; for `Oc1ccc(Cc2nnc3sc(NCc4ccccc4)nn23)cc1` [Compound 8]: 100 to 2000 nM.
The same measure, in the same setting: in the case of `Clc1ccc(Cc2nnc3sc(Nc4cccc(Cl)c4)nn23)cc1` [Compound 91] it was more than 2000 nM.
Consider `CC(=O)Nc1cccc(NCc2nnc3ccc(-c4ccccc4)nn23)c1` [Compound 210], for which the Ki was more than 2000 nM.
As for `c1coc(-c2nn3c(Cc4ccc5c(c4)OCO5)nnc3s2)c1` [Compound 48], the inhibition constant (Ki) was more than 2000 nM.
Take `CC(=O)Nc1ccc(NCc2nnc3ccc(-c4ccccc4)nn23)cc1` [Compound 209]: the Ki was more than 2000 nM.
The same measure, in the same setting: the same measure for `Oc1cccc(CCc2nnc3sc(Nc4cc(F)cc(F)c4)nn23)c1` [Compound 120]: more than 2000 nM.
Same read-out and setting: the same measure for `CN(C)c1ccc(Nc2nn3c(Cc4ccc5c(c4)OCO5)nnc3s2)cc1` [Compound 85]: 100 to 2000 nM; for `Oc1ccc(Cc2nnc3sc(NCCN4CCOCC4)nn23)cc1` [Compound 15]: more than 2000 nM.
Take `Oc1ccc(Cc2nnc3sc(Nc4cccc(F)c4Cl)nn23)cc1Cl` [Compound 103]: the Ki lay in the range of 100 to 2000 nM.
On to `COc1ccc(Nc2nn3c(Cc4ccc(O)cc4)nnc3s2)cc1` [Compound 80], for which the Ki is less than 100 nM.
Still for that read-out and setting: the same measure for `COc1ccc(Cc2nnc3sc(-c4ccccn4)nn23)cc1` [Compound 20]: 100 to 2000 nM.
On to `Cc1ccc(F)cc1Nc1nn2c(Cc3ccc(O)cc3)nnc2s1` [Compound 75], for which the Ki is less than 100 nM.
